The subject of test [1] is AKT1/2/3 (Ser473) phosphorylation (mTORC2) in MDA-MB-468 cells. The test is described as follows: Cell based AlphaLISA assay, mTOR kinase cellular assay: inhibition of p-Akt (S473) in MDA-MB-468 cells. Conditions: Homo sapiens, read-out: pIC50 for Inhibition of mTORC1 and mTORC2 Substarte Phosphorylation p-AKT1/2/3-(S473) (converted). As for the experimental part:
Cell Based AlphaLISA Assays for Determining IC50 For Inhibition of P-Akt (S473), P-4E-BP1 (T37/46), and P-P70S6K (T389) in MDA-MB-468 Cells
mTOR Kinase Cellular Assay
To measure functional activity of mTORC1 and mTORC2 in cells the phosphorylation of 4EBP1 (Thr37/46) and P70S6K (Thr389), and AKT1/2/3 (Ser473) was monitored using AlphaLisa SureFire Ultra Kits (Perkin Elmer). MDA-MB-468 cells (ATCC® HTB-132) were cultured in 96-well tissue culture plates and treated with compounds in the disclosure at concentrations varying from 0.017-1,000 nM for two to four hours at 37° C. Incubations were terminated by removal of the assay buffer and addition of lysis buffer provided with the assay kit. Samples were processed according to the manufacturer's instructions. The Alpha signal from the respective phosphoproteins was measured in duplicate using a microplate reader (Envision, Perkin-Elmer or Spectramax M5, Molecular Devices). Inhibitor concentration response curves were analyzed using normalized IC50 regression curve fitting with control based normalization.
(Alpha assays give light when donor and acceptor beads are brought close together.)

The target of a further test is KRAS G12C (Homo sapiens, UniProt P01116+P62937, G12C). The test is described as follows: Ras-Raf disruption / FRET / MOA assay (BRAF RBD). The format is biochemical. Conditions: KRAS G12C FRET data IC50, Ras-Raf disruption, with Cyclophilin A. The procedure, abridged:
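His6-K-Ras G12C-GMPPNP (12.5 nM), GST-BRAF RBD (50 nM) and tagless Cyclophilin A (25 μM) incubated 3 h at 25 °C with compound (10-point 3-fold series from 30 μM), pH 7.3 HEPES buffer. Anti-His Eu/anti-GST APC added for 1.5 h; decreased TR-FRET ratio vs DMSO gives IC50.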

Test [2] relates to AsPC-1 (K-Ras G12D). The test is described as follows: CellTiter-Glo cell viability assay. The format is cell-based. Conditions: Homo sapiens, ASPC1, 120 h, read-out: AsPC-1 Cell Viability assay data IC50, K-Ras G12D, 5-day treatment. In short, it runs like this: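 Viability is scored by CellTiter-Glo luminescence on day 5 of compound treatment, relative to vehicle (DMSO) wells set as 100%, with a four-parameter logistic fit.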

The target of a further test is KRAS G12D (Homo sapiens, UniProt P01116+P62937, G12D). The test is described as follows: Ras-Raf disruption / FRET / MOA assay (BRAF RBD). The format is biochemical. Conditions: KRAS G12D FRET data IC50, Ras-Raf disruption, with Cyclophilin A. The procedure, abridged:
(§1)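 TR-FRET in 25 mM HEPES pH 7.3, 100 mM NaCl, 5 mM MgCl2, 0.1% BSA, 0.002% Tween20 with 25 μM Cyclophilin A, 12.5 nM His6-Ras-GMPPNP, 50 nM GST-BRAF RBD; compound 10-point 3-fold series from 30 μM. After 3 h at 25 °C, Eu anti-His/APC anti-GST added for 1.5 h; IC50 from ratio decrease versus DMSO.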

The next test concerns the target NRAS G12C (Homo sapiens, UniProt P01111+P62937, G12C). The test is described as follows: Ras-Raf disruption / FRET / MOA assay (BRAF RBD). Particulars: NRAS G12C FRET data IC50, NRAS G12C. The format is biochemical. In short, it runs like this:
as §1

A further test has as its target KRAS Q61H (Homo sapiens, UniProt P01116+P62937, Q61H). The test is described as follows: Ras-Raf disruption / FRET / MOA assay (BRAF RBD). The format is biochemical. The procedure, abridged: as §1
For a further test, the target named is KRAS WT (Homo sapiens, UniProt P01116+P62937). The test is described as follows: Ras-Raf disruption / FRET / MOA assay (BRAF RBD). The format is biochemical. Particulars: KRAS WT FRET data IC50, Ras-Raf disruption, with Cyclophilin A. The procedure, abridged:
as §1

For another test, the target named is KRAS G12S (Homo sapiens, UniProt P01116+P62937, G12S). The test is described as follows: Ras-Raf disruption / FRET / MOA assay (BRAF RBD). The format is biochemical. Conditions: KRAS G12S FRET data IC50, Ras-Raf disruption, with Cyclophilin A. The procedure, abridged:
as §1

The next test has as its target NRAS WT (Homo sapiens, UniProt P01111+P62937). The test is described as follows: Ras-Raf disruption / FRET / MOA assay (BRAF RBD). The format is biochemical. In short, it runs like this: as §1
The target of another test is KRAS G12V (Homo sapiens, UniProt P01116+P62937, G12V). The test is described as follows: Ras-Raf disruption / FRET / MOA assay (BRAF RBD). The format is biochemical. Particulars: KRAS G12V FRET data IC50, Ras-Raf disruption, with Cyclophilin A. In short, it runs like this: as §1
In a further test the target is KRAS G13D (Homo sapiens, UniProt P01116+P62937, G13D). The test is described as follows: Ras-Raf disruption / FRET / MOA assay (BRAF RBD). The format is biochemical. Particulars: KRAS G13D FRET data IC50, Ras-Raf disruption, with Cyclophilin A. The procedure, abridged: as §1
Another test has as its target NRAS Q61K (Homo sapiens, UniProt P01111+P62937, Q61K). The test is described as follows: Ras-Raf disruption / FRET / MOA assay (BRAF RBD). The format is biochemical. In short, it runs like this:
as §1

In another test the target is NRAS Q61R (Homo sapiens, UniProt P01111+P62937, Q61R). The test is described as follows: Ras-Raf disruption / FRET / MOA assay (BRAF RBD). The format is biochemical. In short, it runs like this:
as §1

The target in another test is KRAS G13C (Homo sapiens, UniProt P01116+P62937, G13C). The test is described as follows: Ras-Raf disruption / FRET / MOA assay (BRAF RBD). The format is biochemical. Particulars: KRAS G13C FRET data IC50, Ras-Raf disruption, with Cyclophilin A. The procedure, abridged: as §1
For test [3], the system named is AsPC-1 (K-Ras G12D). The test is described as follows: Potency assay: pERK. The format is cell-based. Conditions: Homo sapiens, ASPC1, read-out: pERK EC50.

SMILES strings stand for the structures.

KRAS G13C, sequence (P01116 1-169 isoform P01116-2 G13C limits assumed): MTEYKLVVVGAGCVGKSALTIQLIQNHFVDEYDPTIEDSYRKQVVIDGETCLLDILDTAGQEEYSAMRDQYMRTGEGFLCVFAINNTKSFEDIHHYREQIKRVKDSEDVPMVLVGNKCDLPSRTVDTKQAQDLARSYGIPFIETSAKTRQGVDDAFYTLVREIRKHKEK
KRAS G13C, sequence (P62937 whole entry): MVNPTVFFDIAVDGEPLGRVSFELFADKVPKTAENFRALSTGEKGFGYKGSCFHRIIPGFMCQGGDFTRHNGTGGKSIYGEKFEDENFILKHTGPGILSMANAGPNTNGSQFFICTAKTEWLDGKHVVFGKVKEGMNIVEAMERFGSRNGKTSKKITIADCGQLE
KRAS Q61H, sequence (P01116 1-169 isoform P01116-2 Q61H limits assumed): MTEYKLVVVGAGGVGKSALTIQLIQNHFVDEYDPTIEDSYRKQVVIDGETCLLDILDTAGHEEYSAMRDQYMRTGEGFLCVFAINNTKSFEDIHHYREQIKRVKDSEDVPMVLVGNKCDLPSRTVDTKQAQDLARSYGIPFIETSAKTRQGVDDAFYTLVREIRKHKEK
KRAS Q61H, sequence (P62937 whole entry): as the sequence (P62937 whole entry) above
NRAS Q61K, sequence (P01111 whole entry Q61K): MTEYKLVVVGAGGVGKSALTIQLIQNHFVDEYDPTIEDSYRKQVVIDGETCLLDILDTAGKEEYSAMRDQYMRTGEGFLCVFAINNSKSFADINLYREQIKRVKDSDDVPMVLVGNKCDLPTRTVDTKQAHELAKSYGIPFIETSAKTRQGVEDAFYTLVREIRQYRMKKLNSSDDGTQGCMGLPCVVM
NRAS Q61K, sequence (P62937 whole entry): as the sequence (P62937 whole entry) above
KRAS G12C, sequence (P01116 1-169 isoform P01116-2 G12C limits assumed): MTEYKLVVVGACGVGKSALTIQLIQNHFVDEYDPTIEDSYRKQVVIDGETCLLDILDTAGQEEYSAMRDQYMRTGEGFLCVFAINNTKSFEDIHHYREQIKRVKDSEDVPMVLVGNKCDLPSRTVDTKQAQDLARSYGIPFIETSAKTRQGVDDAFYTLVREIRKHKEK
KRAS G12C, sequence (P62937 whole entry): as the sequence (P62937 whole entry) above
KRAS WT, sequence (P01116 1-169 isoform P01116-2 limits assumed): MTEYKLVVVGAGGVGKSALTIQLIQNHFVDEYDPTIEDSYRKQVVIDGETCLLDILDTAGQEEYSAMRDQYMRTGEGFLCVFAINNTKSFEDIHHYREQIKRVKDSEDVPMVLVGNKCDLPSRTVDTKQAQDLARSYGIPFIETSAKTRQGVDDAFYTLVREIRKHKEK
KRAS WT, sequence (P62937 whole entry): as the sequence (P62937 whole entry) above
KRAS G12D, sequence (P01116 1-169 isoform P01116-2 G12D limits assumed): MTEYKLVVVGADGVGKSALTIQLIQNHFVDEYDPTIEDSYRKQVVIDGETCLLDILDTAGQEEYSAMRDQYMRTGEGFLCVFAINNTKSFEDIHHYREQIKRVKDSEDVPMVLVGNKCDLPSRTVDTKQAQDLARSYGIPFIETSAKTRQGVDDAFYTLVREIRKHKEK
KRAS G12D, sequence (P62937 whole entry): as the sequence (P62937 whole entry) above
KRAS G12S, sequence (P01116 1-169 isoform P01116-2 G12S limits assumed): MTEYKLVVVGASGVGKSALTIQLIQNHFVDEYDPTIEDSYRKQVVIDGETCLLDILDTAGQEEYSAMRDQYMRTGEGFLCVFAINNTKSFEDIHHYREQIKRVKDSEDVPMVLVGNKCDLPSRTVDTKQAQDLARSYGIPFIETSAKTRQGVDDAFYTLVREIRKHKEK
KRAS G12S, sequence (P62937 whole entry): as the sequence (P62937 whole entry) above
KRAS G12V, sequence (P01116 1-169 isoform P01116-2 G12V limits assumed): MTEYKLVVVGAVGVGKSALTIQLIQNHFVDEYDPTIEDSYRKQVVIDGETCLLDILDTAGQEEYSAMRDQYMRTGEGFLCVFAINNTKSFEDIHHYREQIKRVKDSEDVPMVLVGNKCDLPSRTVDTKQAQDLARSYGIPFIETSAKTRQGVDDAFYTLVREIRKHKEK
KRAS G12V, sequence (P62937 whole entry): as the sequence (P62937 whole entry) above
NRAS G12C, sequence (P01111 whole entry G12C): as the sequence (P01111 whole entry Q61K) above, with G12C, K61Q counted along it
NRAS G12C, sequence (P62937 whole entry): as the sequence (P62937 whole entry) above
NRAS Q61R, sequence (P01111 whole entry Q61R): as the sequence (P01111 whole entry Q61K) above, with K61R counted along it
NRAS Q61R, sequence (P62937 whole entry): as the sequence (P62937 whole entry) above
NRAS WT, sequence (P01111 whole entry): as the sequence (P01111 whole entry Q61K) above, with K61Q counted along it
NRAS WT, sequence (P62937 whole entry): as the sequence (P62937 whole entry) above
KRAS G13D, sequence (P01116 1-169 isoform P01116-2 G13D limits assumed): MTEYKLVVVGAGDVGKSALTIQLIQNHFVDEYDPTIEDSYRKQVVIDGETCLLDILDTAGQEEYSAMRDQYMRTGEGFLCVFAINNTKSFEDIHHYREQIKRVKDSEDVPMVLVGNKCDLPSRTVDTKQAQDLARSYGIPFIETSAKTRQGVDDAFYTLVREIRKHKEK
KRAS G13D, sequence (P62937 whole entry): as the sequence (P62937 whole entry) above

As for `CO[C@H]1C[C@@H]2CC[C@@H](C)[C@@](O)(O2)C(=O)C(=O)N2CCCC[C@H]2C(=O)O[C@H]([C@H](C)C[C@@H]2CC[C@@H](OC(=O)NCc3cnc(N4CCN(c5ncc(C(=O)NCCOCCOCCOCCOCCC(=O)N6CCc7cc(Cn8nc(-c9cnc%10[nH]ccc%10c9)c9c(N)ncnc98)ccc7C6)cn5)CC4CO)nc3)[C@H](OC)C2)CC(=O)[C@H](C)/C=C(\C)[C@@H](O)[C@@H](OC)C(=O)[C@H](C)C[C@H](C)/C=C/C=C/C=C/1C` (some centres unmarked) [Example 41], the IC50 in [1] is more than 1000 nM.

For `CO[C@H]1C[C@@H]2CC[C@@H](C)[C@@](O)(O2)C(=O)C(=O)N2CCCC[C@H]2C(=O)O[C@H]([C@H](C)C[C@@H]2CC[C@@H](OC(=O)NCc3cnc(N4CCN(c5ncc(C(=O)NCCOCCC(=O)N6CCN(c7ncc(C(=O)NCCCCn8nc(-c9ccc%10oc(N)nc%10c9)c9c(N)ncnc98)cn7)CC6)cn5)CC4)nc3)[C@H](OC)C2)CC(=O)[C@H](C)/C=C(\C)[C@@H](O)[C@@H](OC)C(=O)[C@H](C)C[C@H](C)/C=C/C=C/C=C/1C` [Example 53], in test [1], the IC50 is 3.16 to 31.6 nM.

On to `CO[C@H]1C[C@@H]2CC[C@@H](C)[C@@](O)(O2)C(=O)C(=O)N2CCCC[C@H]2C(=O)O[C@H]([C@H](C)C[C@@H]2CC[C@@H](OC(=O)NCCOCCOCCOCCOCCOCCOCCOCCOCC(=O)N3CCc4cc(Cn5nc(-c6ccc7oc(N)nc7c6)c6c(N)ncnc65)ccc4C3)[C@H](OC)C2)C[C@@H](O)[C@H](C)/C=C(\C)[C@@H](O)[C@@H](OC)C(=O)[C@H](C)C[C@H](C)/C=C/C=C/C=C/1C` [Example 72], for which the IC50 in test [1] is not above 3.16 nM.

As for `CO[C@H]1C[C@@H]2CC[C@@H](C)[C@@](O)(O2)C(=O)C(=O)N2CCCC[C@H]2C(=O)O[C@H]([C@H](C)C[C@@H]2CC[C@@H](OC(=O)NCCOCCOCCOCCOCCOCCOCCOCCOCCC(=O)NCc3ccc(Cn4nc(-c5ccc6oc(N)nc6c5)c5c(N)ncnc54)cc3)[C@H](OC)C2)CC(=O)[C@H](C)/C=C(\C)[C@@H](O)[C@@H](OC)C(=O)[C@H](C)C[C@H](C)/C=C/C=C/C=C/1C` [Example 79], in [1], the IC50 was 31.6 to 1000 nM.

In the case of `CO[C@H]1C[C@@H]2CC[C@@H](C)[C@@](O)(O2)C(=O)C(=O)N2CCCC[C@H]2C(=O)O[C@H]([C@H](C)C[C@@H]2CC[C@@H](OC(=O)N3CCc4nc(N5CCN(C(=O)CCOCCN6CCN(c7ncc(C(=O)N8CCc9cc(Cn%10nc(-c%11ccc%12oc(N)nc%12c%11)c%11c(N)ncnc%11%10)ccc9C8)cn7)CC6)CC5)ncc4C3)[C@H](OC)C2)C[C@@H](OC)[C@H](C)/C=C(\C)[C@@H](O)[C@@H](OC)C(=O)[C@H](C)C[C@H](C)/C=C/C=C/C=C/1C` [Example 114], in [1], the IC50 was more than 1000 nM.

In the case of `CO[C@H]1C[C@@H]2CC[C@@H](C)[C@@](O)(O2)C(=O)C(=O)N2CCCC[C@H]2C(=O)O[C@H]([C@H](C)C[C@@H]2CC[C@@H](OC(=O)NCc3cnc(N4CCN(C(=O)CCOCCN5CCN(c6ncc(C(=O)N7CCc8cc(Cn9nc(-c%10ccc%11oc(N)nc%11c%10)c%10c(N)ncnc%109)ccc8C7)cn6)CC5)CC4)nc3)[C@H](OC)C2)CC[C@H](C)/C=C(\C)[C@@H](O)[C@@H](OC)C(=O)[C@H](C)C[C@H](C)/C=C/C=C/C=C/1C` [Example 115], in test [1], the IC50 was not above 3.16 nM.

What is called EC50 is the concentration giving half of the maximal effect. `CCn1c(-c2cccnc2[C@H](C)OC)c2c3cc(ccc31)-c1cc(O)cc(c1)C[C@H](NC(=O)[C@H](C(C)C)N(C)C(=O)CN(C)C(=O)[C@H]1N[C@@H]1C1COC1)C(=O)N1CCC[C@H](N1)C(=O)OCC(C)(C)C2` [Example 284]: the IC50 on KRAS G12C is 10 to 100 nM; in the test on AsPC-1 (K-Ras G12D) [2] it was 1000 to 10000 nM; on KRAS G12D, 10 to 100 nM; at NRAS G12C, less than 10 nM; against KRAS Q61H, 10 to 100 nM; against KRAS WT, 10 to 100 nM. Also, the IC50 at KRAS G12S is 10 to 100 nM; at NRAS WT, 10 to 100 nM; against KRAS G12V, 10 to 100 nM; against KRAS G13D, 10 to 100 nM; on NRAS Q61K, 100 to 1000 nM; at NRAS Q61R, 100 to 1000 nM. Besides, on KRAS G13C, the IC50 was less than 10 nM. In addition, the EC50 in the test on AsPC-1 (K-Ras G12D) [3] was less than 5000 nM.
